Consider 14 molecules from patent US20250120989A1, “BRIDGED TRICYCLIC CARBAMOYLPYRIDONE COMPOUNDS AND USES THEREOF” (priority 2023, published 2025).

SMILES strings stand for the structures. ≈ marks a conversion by molar mass, not a printed value.

One data set concerns HIV-1 (IIIB). Nature of the data set: microbe, parasite or virus in culture. As to conditions: Human immunodeficiency virus 1, MT4, 120 h; HIV-1 (IIIB) replication in MT-4 cells, 5 days, Cell Titer Glo; read-out: MT4 EC50. It is filed as cell-based.
A further data set is described as follows: in vitro. As to conditions: human, uninfected MT-4 cells.
The next data set can be described thus: physchem. As to conditions: FaSSIF, 23 °C, thermodynamic from solid.

Turning to `COC1=NO[C@@]2(CC[C@H](C)N3C[C@H]2n2cc(C(=O)NCc4ccc(F)cc4F)c(=O)c(OCOC(=O)O[C@H](C)[C@H](C)OP(=O)(O)O)c2C3=O)C1` [Compound 60, (((3′S,5S,7′R)-10′-((2,4-difluorobenzyl)carbamoyl)-3-methoxy-3′-methyl-1′,11′-dioxo-1′,4′,5′,11′-tetrahydro-3′H,4H,7′H-spiro[isoxazole-5,6′-[2,7]methanopyrido[1,2-a][1,4]diazonin]-12′-yl)oxy)methyl ((2R,3S)-3-(phosphonooxy)butan-2-yl) carbonate], the EC50 with HIV-1 (IIIB) turned out to be 0.0019 µM. The CC50 at 5 days in “in vitro” is 23.8 µM. Moreover, the thermodynamic solubility at 24 h in “physchem” is 4520 µg/mL (≈ 6.2 mM).

As to `CC1=NO[C@@]2(CC[C@H](C)N3C[C@H]2n2cc(C(=O)NCc4ccc(F)cc4F)c(=O)c(OCOC(=O)O[C@H](C)[C@H](C)OP(=O)(O)O)c2C3=O)C1` [Compound 58, (((3′S,5S,7′R)-10′-((2,4-difluorobenzyl)carbamoyl)-3,3′-dimethyl-1′,11′-dioxo-1′,4′,5′,11′-tetrahydro-3′H,4H,7′H-spiro[isoxazole-5,6′-[2,7]methanopyrido[1,2-a][1,4]diazonin]-12′-yl)oxy)methyl ((2R,3S)-3-(phosphonooxy)butan-2-yl) carbonate], in the data set on HIV-1 (IIIB), the EC50 was found to be 0.00211 µM. This molecule came in with a CC50 at 5 days in the data set “in vitro” of 24.2 µM. Further, the thermodynamic solubility at 24 h in the data set “physchem” is 4860 µg/mL (≈ 6.82 mM).

Regarding `CC1=NO[C@@]2(CC[C@H](C)N3C[C@H]2n2cc(C(=O)NCc4ccc(F)cc4F)c(=O)c(OCOC(=O)OC(C)(C)COP(=O)(O)O)c2C3=O)C1` [Compound 62, (((3′S,5S,7′R)-10′-((2,4-difluorobenzyl)carbamoyl)-3,3′-dimethyl-1′,11′-dioxo-1′,4′,5′,11′-tetrahydro-3′H,4H,7′H-spiro[isoxazole-5,6′-[2,7]methanopyrido[1,2-a][1,4]diazonin]-12′-yl)oxy)methyl (2-methyl-1-(phosphonooxy)propan-2-yl) carbonate], the EC50 in the data set on HIV-1 (IIIB) amounted to 0.00258 µM. This molecule had a half-maximal cytotoxic concentration (CC50) at 5 days in “in vitro” of 28.1 µM. In “physchem”, this molecule displayed a thermodynamic solubility at 24 h of 5040 µg/mL (≈ 7.08 mM).

Regarding `CC[C@H](COC(=O)OCOc1c2n(cc(C(=O)NCc3ccc(F)cc3F)c1=O)[C@@H]1CN(C2=O)[C@@H](C)CC[C@]12CC(C)=NO2)OP(=O)(O)O` [Compound 64, (((3′S,5S,7′R)-10′-((2,4-difluorobenzyl)carbamoyl)-3,3′-dimethyl-1′,11′-dioxo-1′,4′,5′,11′-tetrahydro-3′H,4H,7′H-spiro[isoxazole-5,6′-[2,7]methanopyrido[1,2-a][1,4]diazonin]-12′-yl)oxy)methyl ((R)-2-(phosphonooxy)butyl) carbonate], the EC50 with HIV-1 (IIIB) amounted to 0.00124 µM. For the same molecule, in “in vitro”, the CC50 at 5 days came to 13.6 µM. The solubility (thermodynamic) at 24 h in “physchem” was determined as 4840 µg/mL (≈ 6.8 mM).

As to `CC[C@@H](COC(=O)OCOc1c2n(cc(C(=O)NCc3ccc(F)cc3F)c1=O)[C@@H]1CN(C2=O)[C@@H](C)CC[C@]12CC(OC)=NO2)OP(=O)(O)O` [Compound 67, (((3′S,5S,7′R)-10′-((2,4-difluorobenzyl)carbamoyl)-3-methoxy-3′-methyl-1′,11′-dioxo-1′,4′,5′,11′-tetrahydro-3′H,4H,7′H-spiro[isoxazole-5,6′-[2,7]methanopyrido[1,2-a][1,4]diazonin]-12′-yl)oxy)methyl ((S)-2-(phosphonooxy)butyl) carbonate], in the data set with HIV-1 (IIIB), the concentration giving a half-maximal response (EC50) came to 0.00241 µM. Also, it took 14.4 µM to reach half-maximal cytotoxicity in the data set “in vitro” (CC50 at 5 days). Further, the thermodynamic solubility at 24 h in “physchem” worked out at 5180 µg/mL (≈ 7.12 mM).

Consider `CC1=NO[C@@]2(CC[C@H](C)N3C[C@H]2n2cc(C(=O)NCc4ccc(F)cc4F)c(=O)c(OCOC(=O)OC[C@H](C)OP(=O)(O)O)c2C3=O)C1` [Compound 17, (((3′S,5S,7′R)-10′-((2,4-difluorobenzyl)carbamoyl)-3,3′-dimethyl-1′,11′-dioxo-1′,4′,5′,11′-tetrahydro-3′H,4H,7′H-spiro[isoxazole-5,6′-[2,7]methanopyrido[1,2-a][1,4]diazonin]-12′-yl)oxy)methyl ((S)-2-(phosphonooxy)propyl) carbonate], for which, in the data set on HIV-1 (IIIB), the EC50 amounted to 0.00205 µM. This molecule also came in with a CC50 at 5 days in the data set “in vitro” of 13.7 µM. The same molecule gave a thermodynamic solubility at 24 h in the data set “physchem” of 4590 µg/mL (≈ 6.57 mM).

Regarding `COC1=NO[C@@]2(CC[C@H](C)N3C[C@H]2n2cc(C(=O)NCc4ccc(F)cc4F)c(=O)c(OCOC(=O)O[C@H](C)COP(=O)(O)O)c2C3=O)C1` [Compound 54, (((3′S,5S,7′R)-10′-((2,4-difluorobenzyl)carbamoyl)-3-methoxy-3′-methyl-1′,11′-dioxo-1′,4′,5′,11′-tetrahydro-3′H,4H,7′H-spiro[isoxazole-5,6′-[2,7]methanopyrido[1,2-a][1,4]diazonin]-12′-yl)oxy)methyl ((R)-1-(phosphonooxy)propan-2-yl) carbonate], the concentration giving a half-maximal response (EC50) in the data set on HIV-1 (IIIB) was found to be 0.00432 µM. Moreover, it took 15.5 µM to reach half-maximal cytotoxicity in the data set “in vitro” (CC50 at 5 days). The molecule also yielded a thermodynamic solubility at 24 h in the data set “physchem” of 4660 µg/mL (≈ 6.51 mM).

For the molecule `CC[C@H](COP(=O)(O)O)OC(=O)OCOc1c2n(cc(C(=O)NCc3ccc(F)cc3F)c1=O)[C@@H]1CN(C2=O)[C@@H](C)CC[C@]12CC(C)=NO2` [Compound 25, (((3′S,5S,7′R)-10′-((2,4-difluorobenzyl)carbamoyl)-3,3′-dimethyl-1′,11′-dioxo-1′,4′,5′,11′-tetrahydro-3′H,4H,7′H-spiro[isoxazole-5,6′-[2,7]methanopyrido[1,2-a][1,4]diazonin]-12′-yl)oxy)methyl ((R)-1-(phosphonooxy)butan-2-yl) carbonate], the 50% effective concentration (EC50) with HIV-1 (IIIB) was 0.00221 µM. Also, it took 13.9 µM to reach half-maximal cytotoxicity in “in vitro” (CC50 at 5 days). The solubility (thermodynamic) at 24 h in “physchem” came out at 5130 µg/mL (≈ 7.2 mM).

On to `CC[C@@H](COP(=O)(O)O)OC(=O)OCOc1c2n(cc(C(=O)NCc3ccc(F)cc3F)c1=O)[C@@H]1CN(C2=O)[C@@H](C)CC[C@]12CC(C)=NO2` [Compound 26, (((3′S,5S,7′R)-10′-((2,4-difluorobenzyl)carbamoyl)-3,3′-dimethyl-1′,11′-dioxo-1′,4′,5′,11′-tetrahydro-3′H,4H,7′H-spiro[isoxazole-5,6′-[2,7]methanopyrido[1,2-a][1,4]diazonin]-12′-yl)oxy)methyl ((S)-1-(phosphonooxy)butan-2-yl) carbonate], for which the EC50 in the data set with HIV-1 (IIIB) stood at 0.00271 µM. The same molecule registered a CC50 at 5 days in the data set “in vitro” of 13.5 µM. Moreover, the solubility (thermodynamic) at 24 h in the data set “physchem” was determined as 4760 µg/mL (≈ 6.69 mM).

For `CC1=NO[C@@]2(CC[C@H](C)N3C[C@H]2n2cc(C(=O)NCc4ccc(F)cc4F)c(=O)c(OC(=O)OCC(C)(C)COP(=O)(O)O)c2C3=O)C1` [Compound 13, (3′S,5S,7′R)-10′-((2,4-difluorobenzyl)carbamoyl)-3,3′-dimethyl-1′,11′-dioxo-1′,4′,5′,11′-tetrahydro-3′H,4H,7′H-spiro[isoxazole-5,6′-[2,7]methanopyrido[1,2-a][1,4]diazonin]-12′-yl (2,2-dimethyl-3-(phosphonooxy)propyl) carbonate], the EC50 with HIV-1 (IIIB) came to 0.00198 µM. In addition, the CC50 at 5 days in “in vitro” stood at 14 µM. The thermodynamic solubility at 24 h in the data set “physchem” was 4380 µg/mL (≈ 6.29 mM).

As to `COC1=NO[C@@]2(CC[C@H](C)N3C[C@H]2n2cc(C(=O)NCc4ccc(F)cc4F)c(=O)c(OC(=O)OC[C@H](C)OP(=O)(O)O)c2C3=O)C1` [Compound 38, (3′S,5S,7′R)-10′-((2,4-difluorobenzyl)carbamoyl)-3-methoxy-3′-methyl-1′,11′-dioxo-1′,4′,5′,11′-tetrahydro-3′H,4H,7′H-spiro[isoxazole-5,6′-[2,7]methanopyrido[1,2-a][1,4]diazonin]-12′-yl ((S)-2-(phosphonooxy)propyl) carbonate], the EC50 in the data set on HIV-1 (IIIB) was found to be 0.00145 µM. In addition, the midpoint of cytotoxicity in the data set “in vitro”, the CC50 at 5 days, lay at 17.6 µM. The same molecule gave a solubility (thermodynamic) at 24 h in the data set “physchem” of 2460 µg/mL (≈ 3.59 mM).

For the molecule `COC1=NO[C@@]2(CC[C@H](C)N3C[C@H]2n2cc(C(=O)NCc4ccc(F)cc4F)c(=O)c(OCOC(=O)OC[C@H](C)OP(=O)(O)O)c2C3=O)C1` [Compound 23, (((3′S,5S,7′R)-10′-((2,4-difluorobenzyl)carbamoyl)-3-methoxy-3′-methyl-1′,11′-dioxo-1′,4′,5′,11′-tetrahydro-3′H,4H,7′H-spiro[isoxazole-5,6′-[2,7]methanopyrido[1,2-a][1,4]diazonin]-12′-yl)oxy)methyl ((S)-2-(phosphonooxy)propyl) carbonate], the EC50 with HIV-1 (IIIB) was 0.00233 µM. The molecule further came in with a CC50 at 5 days in the data set “in vitro” of 14.8 µM. In addition, the thermodynamic solubility at 24 h in the data set “physchem” was 4400 µg/mL (≈ 6.16 mM).

`CC[C@@H](COC(=O)OCOc1c2n(cc(C(=O)NCc3ccc(F)cc3F)c1=O)[C@@H]1CN(C2=O)[C@@H](C)CC[C@]12CC(C)=NO2)OP(=O)(O)O` [Compound 66, (((3′S,5S,7′R)-10′-((2,4-difluorobenzyl)carbamoyl)-3,3′-dimethyl-1′,11′-dioxo-1′,4′,5′,11′-tetrahydro-3′H,4H,7′H-spiro[isoxazole-5,6′-[2,7]methanopyrido[1,2-a][1,4]diazonin]-12′-yl)oxy)methyl ((S)-2-(phosphonooxy)butyl) carbonate]: the EC50 in the data set with HIV-1 (IIIB) turned out to be 0.00207 µM. The molecule further registered a half-maximal cytotoxic concentration (CC50) at 5 days in “in vitro” of 12.8 µM. For the same molecule, the solubility (thermodynamic) at 24 h in “physchem” turned out to be 4270 µg/mL (≈ 5.99 mM).

As for `COC1=NO[C@@]2(CC[C@H](C)N3C[C@H]2n2cc(C(=O)NCc4ccc(F)cc4F)c(=O)c(OCOC(=O)O[C@@H](C)[C@H](C)OP(=O)(O)O)c2C3=O)C1` [Compound 29, (((3′S,5S,7′R)-10′-((2,4-difluorobenzyl)carbamoyl)-3-methoxy-3′-methyl-1′,11′-dioxo-1′,4′,5′,11′-tetrahydro-3′H,4H,7′H-spiro[isoxazole-5,6′-[2,7]methanopyrido[1,2-a][1,4]diazonin]-12′-yl)oxy)methyl ((2S,3S)-3-(phosphonooxy)butan-2-yl) carbonate], the half-maximal effective concentration (EC50) in the data set on HIV-1 (IIIB) came to 0.00487 µM. Besides, the midpoint of cytotoxicity in “in vitro”, the CC50 at 5 days, lay at 29 µM. Besides, in “physchem”, the thermodynamic solubility at 24 h was 4880 µg/mL (≈ 6.7 mM).
